Experimental data as given in PubChem BioAssay AID248 (DTP/NCI, 2004).
Values joined by “and” are separate entries in the source; they are usually repeats but may differ in a detail not shown here. Equal entries are not always repeated. Inconclusive results and toxic doses are left out. Cut-off read from the data, not from the text of the source: active = T/C of 150% or more; inactive = T/C below 125%.

Tested on: L1210 leukemia ip in BDF1 mice, survival T/C
Assay: NCI In Vivo Anticancer Drug Screen. Data for tumor model L1210 Leukemia (intraperitoneal) in B6D2F1 (BDF1) mice
Details: endpoint: mean survival time, higher = longer survival
Summary of the method: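 Tumor cells were implanted, animals were treated, and survival was followed. The result divides the treated measurement by the vehicle-control measurement.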

[1] = dose: 25.0 mg/kg/injection, schedule: Q01DX009 (ip), vehicle: saline
[2] = dose: 25.0 mg/kg/injection, schedule: Q04DX003 (ip), vehicle: saline
[3] = dose: 50.0 mg/kg/injection, schedule: Q01DX009 (ip), vehicle: saline
[4] = dose: 50.0 mg/kg/injection, schedule: Q04DX003 (ip), vehicle: saline
[5] = dose: 12.5 mg/kg/injection, schedule: Q01DX009 (ip), vehicle: saline
[6] = dose: 100.0 mg/kg/injection, schedule: Q01DX009 (ip), vehicle: saline
[7] = dose: 100.0 mg/kg/injection, schedule: Q04DX003 (ip), vehicle: saline
[8] = dose: 200.0 mg/kg/injection, schedule: Q04DX003 (ip), vehicle: saline
[9] = dose: 400.0 mg/kg/injection, schedule: Q04DX003 (ip), vehicle: saline
[10] = dose: 200.0 mg/kg/injection, schedule: Q01DX009 (ip), vehicle: saline
[11] = dose: 400.0 mg/kg/injection, schedule: Q01DX009 (ip), vehicle: saline

Measured: T/C

CN(C)C(=O)Nc1ccncc1
inactive: dose: 25.0 mg/kg/injection, schedule: Q01DX001 (ip), vehicle: saline 97 % of control | [1] 98 % of control and 91 % of control | dose: 25.0 mg/kg/injection, schedule: Q04DX002 (ip), vehicle: saline with Tween-80 93 % of control and 97 % of control | [2] 103 % of control | dose: 50.0 mg/kg/injection, schedule: Q01DX001 (ip), vehicle: saline 95 % of control | [3] 97 % of control and 88 % of control | dose: 50.0 mg/kg/injection, schedule: Q04DX002 (ip), vehicle: saline with Tween-80 98 % of control and 105 % of control | [4] 101 % of control

O=C(C=C(C(F)(F)F)C(F)(F)F)c1cccc(C(F)(F)F)c1
inactive: dose: 12.5 mg/kg/injection, schedule: Q01DX009 (ip), vehicle: saline with Tween-80 102 % of control | dose: 25.0 mg/kg/injection, schedule: Q01DX009 (ip), vehicle: saline with Tween-80 95 % of control | dose: 100.0 mg/kg/injection, schedule: Q04DX003 (ip), vehicle: saline with Tween-80 89 % of control

O=C(Oc1c(-c2ccccc2)[nH]c2ccccc12)c1ccc([N+](=O)[O-])cc1
inactive: dose: 100.0 mg/kg/injection, schedule: Q04DX002 (ip), vehicle: Klucel (hydroxypropylcellulose) (HPC) 104 % of control | dose: 200.0 mg/kg/injection, schedule: Q04DX002 (ip), vehicle: Klucel (hydroxypropylcellulose) (HPC) 101 % of control | dose: 400.0 mg/kg/injection, schedule: Q04DX002 (ip), vehicle: Klucel (hydroxypropylcellulose) (HPC) 90 % of control

S=C1SCN(CCc2ccccc2)CN1CCc1ccccc1
inactive: dose: 100.0 mg/kg/injection, schedule: Q04DX002 (ip), vehicle: gum acacia 92 % of control | dose: 200.0 mg/kg/injection, schedule: Q04DX002 (ip), vehicle: gum acacia 98 % of control | dose: 400.0 mg/kg/injection, schedule: Q04DX002 (ip), vehicle: gum acacia 92 % of control

CC1=CC(=O)C(CO)=CC1=O
inactive: dose: 0.09 mg/kg/injection, schedule: Q01DX009 (ip), vehicle: saline with Tween-80 93 % of control | dose: 0.18 mg/kg/injection, schedule: Q01DX009 (ip), vehicle: saline with Tween-80 97 % of control | dose: 0.37 mg/kg/injection, schedule: Q01DX009 (ip), vehicle: saline with Tween-80 104 % of control | dose: 3.0 mg/kg/injection, schedule: Q01DX009 (ip), vehicle: other 105 % of control | dose: 3.0 mg/kg/injection, schedule: Q04DX002 (ip), vehicle: other 107 % of control | dose: 6.0 mg/kg/injection, schedule: Q01DX009 (ip), vehicle: other 91 % of control | dose: 6.0 mg/kg/injection, schedule: Q04DX002 (ip), vehicle: other 96 % of control | dose: 12.5 mg/kg/injection, schedule: Q04DX002 (ip), vehicle: other 86 % of control

c1ccc(C2=NNC(c3ccccc3)(c3ccccc3)c3ccccc32)cc1
inactive: dose: 100.0 mg/kg/injection, schedule: Q01DX001 (ip), vehicle: other 96 % of control | dose: 200.0 mg/kg/injection, schedule: Q01DX001 (ip), vehicle: other 90 % of control | dose: 400.0 mg/kg/injection, schedule: Q01DX001 (ip), vehicle: other 95 % of control

NC1(CO)COC(c2ccccc2)OC1 (configuration not stated)
inactive: [5] 102 % of control | dose: 12.5 mg/kg/injection, schedule: Q04DX003 (ip), vehicle: saline 102 % of control | [1] 94 % of control | [2] 96 % of control | [3] 96 % of control and 104 % of control | [4] 105 % of control | dose: 100.0 mg/kg/injection, schedule: Q01DX009 (ip), vehicle: saline sonified 96 % of control | [6] 112 % of control | [7] 107 % of control and 110 % of control

O=C(O)c1ccccc1Oc1ccccc1C(=O)O
inactive: [7] 102 % of control | [8] 100 % of control | [9] 91 % of control

C=CC[N+]12CCCC1C(=C)CC2 (configuration not stated)
inactive: [5] 106 % of control | [1] 100 % of control | [3] 97 % of control and 106 % of control

C[n+]1cccc(O)c1
inactive: dose: 67.0 mg/kg/injection, schedule: Q04DX003 (ip), vehicle: saline 105 % of control | [6] 90 % of control | [7] 107 % of control | dose: 150.0 mg/kg/injection, schedule: Q04DX003 (ip), vehicle: saline 105 % of control | [10] 93 % of control | [8] 124 % of control | [11] 92 % of control | [9] 97 % of control

Cc1ccc(C2(C(=O)O)CC2)cc1
inactive: dose: 100.0 mg/kg/injection, schedule: Q01DX009 (ip), vehicle: saline with Tween-80 100 % of control | dose: 200.0 mg/kg/injection, schedule: Q01DX009 (ip), vehicle: saline with Tween-80 97 % of control | dose: 400.0 mg/kg/injection, schedule: Q01DX009 (ip), vehicle: saline with Tween-80 94 % of control

CCCC1C(=O)N2C(N(C)C)=Nc3ccc(C)cc3N2C1=O (configuration not stated)
inactive: dose: 50.0 mg/kg/injection, schedule: Q01DX009 (ip), vehicle: carboxymethylcellulose (CMC) 101 % of control | dose: 100.0 mg/kg/injection, schedule: Q01DX001 (ip), vehicle: saline 110 % of control | dose: 100.0 mg/kg/injection, schedule: Q01DX009 (ip), vehicle: carboxymethylcellulose (CMC) 101 % of control | dose: 200.0 mg/kg/injection, schedule: Q01DX001 (ip), vehicle: saline 98 % of control | dose: 200.0 mg/kg/injection, schedule: Q01DX009 (ip), vehicle: carboxymethylcellulose (CMC) 101 % of control | dose: 400.0 mg/kg/injection, schedule: Q01DX001 (ip), vehicle: saline 93 % of control | dose: 400.0 mg/kg/injection, schedule: Q01DX009 (ip), vehicle: carboxymethylcellulose (CMC) 92 % of control

C[N+]12CN3CN(C1)S(=O)(=O)N(C3)C2
inactive: [6] 107 % of control | [7] 95 % of control | [10] 108 % of control | [8] 97 % of control | [11] 110 % of control | [9] 103 % of control
